Measurements: US20260138961A1, “MODULATORS OF MITOCHONDRIAL DNA REPLICATION” (Pretzel Therapeutics, Inc., priority 2022, published 2026)

target: T1, POLγA:A467T (Homo sapiens, UniProt P54098, A467T); experiment: DNA polymerization assay, POLγA:A467T mutant; assay type: biochemical; conditions: A467T AC50, stimulation of polymerase activity, primed M13mp18 ssDNA, 37° C. 2 hours
T1 sequence (P54098 1-1239 A467T): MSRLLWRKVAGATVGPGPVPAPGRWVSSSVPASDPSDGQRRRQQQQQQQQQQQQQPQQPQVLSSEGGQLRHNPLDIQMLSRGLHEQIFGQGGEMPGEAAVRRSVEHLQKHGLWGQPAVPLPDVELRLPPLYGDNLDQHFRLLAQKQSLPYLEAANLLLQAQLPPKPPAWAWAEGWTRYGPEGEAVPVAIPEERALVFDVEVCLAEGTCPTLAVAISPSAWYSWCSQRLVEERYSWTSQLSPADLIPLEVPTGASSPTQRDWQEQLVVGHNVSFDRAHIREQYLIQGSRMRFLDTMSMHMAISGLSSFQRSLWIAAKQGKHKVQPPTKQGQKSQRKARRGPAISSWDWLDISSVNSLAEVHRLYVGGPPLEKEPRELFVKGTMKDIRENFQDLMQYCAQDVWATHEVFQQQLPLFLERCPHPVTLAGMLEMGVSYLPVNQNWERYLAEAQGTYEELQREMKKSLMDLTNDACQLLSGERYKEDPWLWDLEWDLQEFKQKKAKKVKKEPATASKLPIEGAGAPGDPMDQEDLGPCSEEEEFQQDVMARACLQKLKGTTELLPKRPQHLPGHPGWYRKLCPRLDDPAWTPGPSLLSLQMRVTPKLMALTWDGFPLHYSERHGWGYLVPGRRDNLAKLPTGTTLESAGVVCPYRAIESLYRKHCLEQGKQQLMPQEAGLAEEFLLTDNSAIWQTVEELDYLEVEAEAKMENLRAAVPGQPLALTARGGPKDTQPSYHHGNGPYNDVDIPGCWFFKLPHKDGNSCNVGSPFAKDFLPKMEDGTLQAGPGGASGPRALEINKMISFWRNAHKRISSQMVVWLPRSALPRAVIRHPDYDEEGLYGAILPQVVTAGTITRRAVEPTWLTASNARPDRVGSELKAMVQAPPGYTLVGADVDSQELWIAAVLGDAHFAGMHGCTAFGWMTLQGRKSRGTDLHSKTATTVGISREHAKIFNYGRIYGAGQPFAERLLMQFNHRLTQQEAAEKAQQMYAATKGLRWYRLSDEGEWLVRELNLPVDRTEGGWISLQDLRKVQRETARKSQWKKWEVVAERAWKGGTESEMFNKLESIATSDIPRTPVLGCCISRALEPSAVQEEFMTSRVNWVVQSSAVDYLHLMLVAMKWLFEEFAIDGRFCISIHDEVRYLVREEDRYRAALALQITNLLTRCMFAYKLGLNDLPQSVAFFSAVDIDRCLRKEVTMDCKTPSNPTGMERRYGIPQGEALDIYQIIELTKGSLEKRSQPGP
T1 sequence (Q9UHN1 1-485 partner): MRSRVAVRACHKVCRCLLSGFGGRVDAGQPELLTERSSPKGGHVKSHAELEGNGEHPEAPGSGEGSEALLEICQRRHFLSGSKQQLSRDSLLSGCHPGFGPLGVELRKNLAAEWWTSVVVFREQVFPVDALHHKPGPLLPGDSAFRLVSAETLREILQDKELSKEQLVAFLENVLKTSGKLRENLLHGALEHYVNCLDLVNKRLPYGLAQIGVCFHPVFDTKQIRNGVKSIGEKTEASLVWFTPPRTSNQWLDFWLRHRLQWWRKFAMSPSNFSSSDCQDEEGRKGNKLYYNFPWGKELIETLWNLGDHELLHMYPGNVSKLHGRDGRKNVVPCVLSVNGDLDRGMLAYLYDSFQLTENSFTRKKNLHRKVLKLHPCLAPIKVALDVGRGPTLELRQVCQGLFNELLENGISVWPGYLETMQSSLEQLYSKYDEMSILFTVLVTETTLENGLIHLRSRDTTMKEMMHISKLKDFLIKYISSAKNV
Procedure: DNA Polymerization Assay to Monitor Effects on Human Wildtype POLγ and Four Disease-Causing Mutant Variants of Human POLγ.
The ability of small molecules to stimulate the polymerase activity of POLγ was analyzed in a quantitative fluorescence SYBR Green I assay with fluorescence intensity (FI) readout.
In the presence of dNTPs, wild type human POLγ and mutant derivatives thereof were incubated with single-stranded, circular M13mp18 ssDNA hybridized to a short DNA oligonucleotide that functions as a primer for initiation of DNA synthesis. POLγ and mutant derivatives thereof will extend the primer and use the M13mp18 molecule as a template to synthesize long stretches of double-stranded DNA. SYBR Green I, which is a double-stranded DNA-binding dye, was used to quantify formation of double-stranded DNA in the reaction. When bound to double-stranded DNA, SYBR Green I fluorescence increases by up to 100-fold.
The assay was performed in the 384-well plate format. Upon addition of compounds, changes in double-stranded DNA synthesis activity can be monitored by following effects on fluorescent intensity.
The reactions also contained the accessory POLγB subunit, and the human mitochondrial single-stranded DNA binding protein (mtSSB).
The DNA template mixture used in the assay contained 0.5 nM primed M13 mp18 ssDNA, 400 nM mtSSB, 0.1 mM Tris-HCl (pH 8.0), 0.1 mM dNTP, 10 mM MgCl2, 0.1 mg/mL BSA, 1 mM TCEP solution, and 0.02% Triton X-100. The DNA template mixture for the wild type protein contained either 100 μM dNTP, 1 μM dNTP, or 0.1 μM dNTP, designated in Table 2 as 100 μM, 1 μM, and 0.1 μM, respectfully.
Microplates with compounds (0.1 μL in each well) to be tested in the assay were prepared from 10 mM compound stocks in 100% DMSO, and equal amounts of DMSO without any compound were added to positive and negative control wells.
The protein mixture was dispensed (5 μL into each well) into compound plates and incubated at 37° C. for 15 minutes. After incubation, 5 μL of the DNA template mixture was dispensed into each well. The plates were then incubated at 37° C. for 2 hours.
During incubation, a combined stop buffer and detection reagent solution was prepared. The buffer contained 25 mM EDTA (pH 8.0), 0.02% Triton X-100, and SYBR Green I [Invitrogen] diluted 10,000× (for fluorescent readout). EDTA will stop the enzymatic reaction by chelating magnesium ions.

Compound	AC50 [µM]
Cc1cc(S(=O)(=O)Nc2noc(-c3ccccc3)n2)c(C)cc1Cl [Example 142, 4-chloro-2,5-dimethyl-N-(5-phenyl-1,2,4-oxadiazol-3-yl)benzenesulfonamide]	> 100

same assay, conditions: stimulation of polymerase activity, primed M13mp18 ssDNA, 37° C. 2 hours; read-out: A467T AC50

Compound	AC50 [µM]
O=S(=O)(Nc1csc(-c2ccccc2)n1)c1ccc(F)c(F)c1 [Example 122, 3,4-difluoro-N-(2-phenylthiazol-4-yl)benzenesulfonamide]	> 100
Cc1ccc(S(=O)(=O)Nc2csc(-c3ccccc3)n2)c(C)c1 [Example 123, 2,4-dimethyl-N-(2-phenylthiazol-4-yl)benzenesulfonamide]	> 100
Cc1cc(F)ccc1S(=O)(=O)Nc1csc(-c2ccccc2)n1 [Example 124, 4-fluoro-2-methyl-N-(2-phenylthiazol-4-yl)benzenesulfonamide]	> 100
O=S(=O)(Nc1csc(-c2ccccc2)n1)c1ccccc1Cl [Example 125, 2-chloro-N-(2-phenylthiazol-4-yl)benzenesulfonamide]	8
O=S(=O)(Nc1csc(-c2ccccc2)n1)c1ccc(F)cc1Cl [Example 126, 2-chloro-4-fluoro-N-(2-phenylthiazol-4-yl)benzenesulfonamide]	32
O=S(=O)(Nc1csc(-c2ccccc2)n1)c1ccc(C(F)(F)F)cc1 [Example 127, N-(2-phenylthiazol-4-yl)-4-(trifluoromethyl)benzenesulfonamide]	> 100
O=S(=O)(Nc1csc(-c2ccccc2)n1)c1cccc2nccnc12 [Example 128, N-(2-phenylthiazol-4-yl)quinoxaline-5-sulfonamide]	> 100
Cc1cc(S(=O)(=O)N[C@H]2CCCN(C(=O)c3ccccc3)C2)c(C)cc1Cl [Example 129, (S)-N-(1-benzoylpiperidin-3-yl)-4-chloro-2,5-dimethylbenzenesulfonamide]	> 100
Cc1cc(S(=O)(=O)N[C@H]2CCCN(C(=O)N3CCCC3)C2)c(C)cc1Cl [Example 130, (S)-4-chloro-2,5-dimethyl-N-(1-(pyrrolidinee-1-carbonyl)piperidin-3-yl)benzenesulfonamide]	> 100
Cc1cc(S(=O)(=O)Nc2nsc(-c3ccccc3)n2)c(C)cc1Cl [Example 131, 4-chloro-2,5-dimethyl-N-(5-phenyl-1,2,4-thiadiazol-3-yl)benzenesulfonamide]	> 100
Cc1cc(S(=O)(=O)Nc2nc(-c3ccccc3)ns2)c(C)cc1Cl [Example 132, 4-chloro-2,5-dimethyl-N-(3-phenyl-1,2,4-thiadiazol-5-yl)benzenesulfonamide]	> 100
Cc1cc(S(=O)(=O)Nc2cccc(C(=O)N3CCC[C@@H]3C)c2)c(C)cc1Cl [Example 133, (S)-4-chloro-2,5-dimethyl-N-(3-(2-methylpyrrolidine-1-carbonyl)phenyl)benzenesulfonamide]	> 100
Cc1ccc(C)c(S(=O)(=O)Nc2csc(-c3ccccc3)n2)c1 [Example 134, 2,5-dimethyl-N-(2-phenylthiazol-4-yl)benzenesulfonamide]	3
Cc1cc(Cl)ccc1S(=O)(=O)Nc1csc(-c2ccccc2)n1 [Example 135, 4-chloro-2-methyl-N-(2-phenylthiazol-4-yl)benzenesulfonamide]	32
Cc1cc(S(=O)(=O)Nc2csc(-c3ccccc3)n2)c(Cl)cc1F [Example 136, 2-chloro-4-fluoro-5-methyl-N-(2-phenylthiazol-4-yl)benzenesulfonamide]	5
O=S(=O)(Nc1csc(-c2ccccc2)n1)c1ccc2ncsc2c1 [Example 137, N-(2-phenylthiazol-4-yl)benzo[d]thiazole-6-sulfonamide]	> 100
O=S(=O)(Nc1csc(-c2ccccc2)n1)c1ccc(Cl)cc1Cl [Example 138, 2,4-dichloro-N-(2-phenylthiazol-4-yl)benzenesulfonamide]	> 100
O=S(=O)(Nc1csc(-c2ccccc2)n1)c1ccccn1 [Example 139, N-(2-phenylthiazol-4-yl)pyridine-2-sulfonamide]	> 100
O=S(=O)(Nc1csc(-c2ccccc2)n1)c1ccc(F)cc1F [Example 140, 2,4-difluoro-N-(2-phenylthiazol-4-yl)benzenesulfonamide]	> 100
O=S(=O)(Nc1csc(-c2ccccc2)n1)c1ccc(C(F)(F)F)cc1F [Example 141, 2-fluoro-N-(2-phenylthiazol-4-yl)-4-(trifluoromethyl)benzenesulfonamide]	> 100
Cc1cc(S(=O)(=O)Nc2nc(-c3ccccc3)no2)c(C)cc1Cl [Example 143, 4-chloro-2,5-dimethyl-N-(3-phenyl-1,2,4-oxadiazol-5-yl)benzenesulfonamide]	> 100
Cc1cc(S(=O)(=O)Nc2cccc(C(=O)N3CCC[C@H]3CO)c2)c(C)cc1Cl [Example 145, (S)-4-chloro-N-(3-(2-(hydroxymethyl)pyrrolidine-1-carbonyl)phenyl)-2,5-dimethylbenzenesulfonamide]	> 100
Cc1cc(S(=O)(=O)Nc2csc(-c3ccccc3)n2)c(F)cc1Cl [Example 146, 4-chloro-2-fluoro-5-methyl-N-(2-phenylthiazol-4-yl)benzenesulfonamide]	> 100
O=S(=O)(Nc1csc(-c2ccccc2)n1)c1ccccc1 [Example 147, N-(2-phenylthiazol-4-yl)benzenesulfonamide]	> 100
Cc1cc(S(=O)(=O)Nc2csc(-c3ccccc3)n2)ccc1Cl [Example 148, 4-chloro-3-methyl-N-(2-phenylthiazol-4-yl)benzenesulfonamide]	> 100
Cc1cc(S(=O)(=O)N[C@@H]2CCCN(c3ccccc3)C2)c(C)cc1Cl [Example 149, (R)-4-chloro-2,5-dimethyl-N-(1-phenylpiperidin-3-yl)benzenesulfonamide]	> 100
